What all share (type): tissue-based
Conditions in all cases: Muscle tissue

For test [1], the species on record is Oryctolagus cuniculus. In words: Inhibition of trypsin-like activity of rabbit muscle 26S proteasome upto 500 uM after 30 mins.
Test [2] is filed under the species Oryctolagus cuniculus. Nature of the test: Inhibition of trypsin-like activity of rabbit muscle 26S proteasome at 50 to 100 uM after 30 mins.
Test [3] is filed under the species Oryctolagus cuniculus. Nature of the test: Inhibition of chymotrypsin-like activity of rabbit muscle 26S proteasome upto 500 uM after 30 mins.
The species entered for test [4] is Oryctolagus cuniculus. In words: Inhibition of caspase-like activity of rabbit muscle 26S proteasome after 30 mins.
The species named for test [5] is Oryctolagus cuniculus. In words: Inhibition of caspase-like activity of rabbit muscle 26S proteasome at 10 to 20 uM after 30 mins.
For test [6], the species on record is Oryctolagus cuniculus. In words: Inhibition of caspase-like activity of rabbit muscle 26S proteasome at 50 to 100 uM after 30 mins.

Active and inactive are the calls of the source. The calls are words filed in the database; no cut-off is given here. A value given as a limit tells only on which side of the number the result lay.

`CCCC[C@H](NC(=O)[C@@H]1CCCN1C(=O)[C@H](C)NC(C)=O)C(=O)N[C@H](/C=C/S(=O)(=O)c1ccc(O)cc1)CC(C)C`: the result in the test filed under Oryctolagus cuniculus [1] and in the test filed under Oryctolagus cuniculus [3] was inactive. The outcome in the test filed under Oryctolagus cuniculus [2], in the test listed under Oryctolagus cuniculus [4] and in the test filed under Oryctolagus cuniculus [6] was Active. In the test listed under Oryctolagus cuniculus [5], the inhibition (as a rule, the drop in the measured response relative to a control, in per cent) was above 90%.

As for `CCCC[C@H](NC(=O)[C@@H]1CCCN1C(=O)[C@H](C)NC(=O)CN=[N+]=[N-])C(=O)N[C@H](/C=C/S(=O)(=O)c1ccc(O)cc1)CC(C)C`, the outcome in the test listed under Oryctolagus cuniculus [4] was Active.

Source of the values: ChEMBL document CHEMBL1148005, “A cell-permeable inhibitor and activity-based probe for the caspase-like activity of the proteasome” (Bioorg Med Chem Lett, 2007).
